Results on five compounds are retold here after ChEMBL document CHEMBL1146901, “Synthesis and pharmacological study of novel pyrido-quinazolone analogues as anti-fungal, antibacterial, and anticancer agents” (Bioorg Med Chem Lett, 2006).

Experiment [1] concerns Aspergillus flavus. As to the kind of experiment: Antifungal activity against Aspergillus flavus at 20 ug/ml by agar plate method. The class given is functional.
Experiment [2] relates to MCF7. As to the kind of experiment: Cytotoxicity against human MCF7 cells. The class given is functional, cell-based.
Experiment [3] concerns Aspergillus flavus. The experiment in a line: Antifungal activity against Aspergillus flavus at 50 ug/ml by agar plate method. The class given is functional.
Experiment [4] relates to Aspergillus niger. The experiment in a line: Antifungal activity against Aspergillus niger at 50 ug/ml by agar plate method. The class given is functional.
A further experiment deals with Pseudomonas aeruginosa. The experiment in a line: Antibacterial activity against Pseudomonas aeruginosa by disk diffusion method. The class given is functional. In general terms: A growth-free zone around the sample is the usual read-out of agar diffusion tests.
In experiment [5] the test system is Aspergillus niger. As to the kind of experiment: Antifungal activity against Aspergillus niger at 20 ug/ml by agar plate method. The class given is functional.
In experiment [6] the test system is Aspergillus niger. The experiment in a line: Antifungal activity against Aspergillus niger at 10 ug/ml by agar plate method. The class given is functional.
For experiment [7], the system named is Aspergillus flavus. As to the kind of experiment: Antifungal activity against Aspergillus flavus at 10 ug/ml by agar plate method. The class given is functional.
Experiment [8] concerns Aspergillus niger. As to the kind of experiment: Antifungal activity against Aspergillus niger at 100 ug/ml by agar plate method. The class given is functional.
Experiment [9] concerns Aspergillus flavus. The experiment in a line: Antifungal activity against Aspergillus flavus at 100 ug/ml by agar plate method. The class given is functional.
For another experiment, the system named is Staphylococcus aureus. The experiment in a line: Antibacterial activity against Staphylococcus aureus by disk diffusion method. The class given is functional.
The test system of the next experiment is Klebsiella pneumoniae. As to the kind of experiment: Antibacterial activity against Klebsiella pneumoniae by disk diffusion method. The class given is functional.
Experiment [10] concerns MCF7. The experiment in a line: Cytotoxicity against human MCF7 cells assessed as decrease in number of cells relative to control. The class given is functional, cell-based.

pIC50: −log10 of the molar value. Some results are limits rather than exact numbers.

The term inhibition denotes how much of the control response was suppressed. Broadly, the pIC50 is the negative decadic logarithm of the IC50, by convention in mol/L. In the case of `O=C1NCc2cc3c(=O)n(-c4ccccc4)c(-c4ccccc4)c(-c4ccccc4)c3cc2N1`, the inhibition at 20 µg/mL with Aspergillus flavus [1] and in the experiment with Aspergillus niger [5] was no more than 25% each time. The pIC50 in the experiment on MCF7 [2] was 5.07. For the same compound, the inhibition at 50 µg/mL in the experiment on Aspergillus flavus [3] and with Aspergillus niger [4] was no more than 25% throughout. For the same compound, the “inhibition zone (IZ)” value in the experiment on Pseudomonas aeruginosa, with Staphylococcus aureus and in the experiment with Klebsiella pneumoniae was 6 mm throughout. Moreover, the inhibition at 10 µg/mL in the experiment with Aspergillus niger [6] and in the experiment with Aspergillus flavus [7] was no more than 25% throughout. For the same compound, the inhibition at 100 µg/mL in the experiment with Aspergillus niger [8] and with Aspergillus flavus [9] was no more than 25% in each case.
`O=C1Nc2cc3c(-c4ccccc4)c(-c4ccccc4)n(-c4ccc(Cl)cc4)c(=O)c3cc2C(c2ccccc2)N1` (centres undefined): the results for the inhibition at 20 µg/mL in the experiment on Aspergillus flavus [1] and with Aspergillus niger [5] were 76.7% and 70%, respectively. Also, the negative logarithm of the IC50 (pIC50) with MCF7 [2] was 4.59. The inhibition at 50 µg/mL in the experiment with Aspergillus flavus [3] is 83.3%; in the experiment with Aspergillus niger [4], 80%. For the same compound, the Activity result in the experiment on MCF7 [10] was “Toxic”. Also, the “inhibition zone (IZ)” value with Pseudomonas aeruginosa, in the experiment on Staphylococcus aureus and in the experiment with Klebsiella pneumoniae was 10 mm each time. Moreover, the inhibition at 10 µg/mL came out at 50% in the experiment on Aspergillus niger [6] and 60% in the experiment on Aspergillus flavus [7]. In addition, the inhibition at 100 µg/mL with Aspergillus niger [8] stood at 90%; in the experiment on Aspergillus flavus [9], 93.3%.
Regarding `O=C1Nc2cc3c(-c4ccccc4)c(-c4ccccc4)n(-c4ccccc4)c(=O)c3cc2C(c2ccccc2)N1` (centres undefined), the inhibition at 20 µg/mL in the experiment with Aspergillus flavus [1] came out at 60%; in the experiment on Aspergillus niger [5], 75%. The same compound had a negative-log IC50 (pIC50) in the experiment on MCF7 [2] of 5.36. The inhibition at 50 µg/mL is 73.3% in the experiment with Aspergillus flavus [3] and 90% in the experiment on Aspergillus niger [4]. Also, the Activity result with MCF7 [10] was “Toxic”. Also, the “inhibition zone (IZ)” value in the experiment on Pseudomonas aeruginosa is 10 mm; in the experiment on Staphylococcus aureus, greater than 14 mm; with Klebsiella pneumoniae, 6 mm. In addition, the inhibition at 10 µg/mL is 60% with Aspergillus niger [6] and 53.3% in the experiment on Aspergillus flavus [7]. The inhibition at 100 µg/mL in the experiment on Aspergillus niger [8] was determined as 95%; in the experiment with Aspergillus flavus [9], 86.7%.
In the case of `COc1ccc(-n2c(-c3ccccc3)c(-c3ccccc3)c3cc4c(cc3c2=O)C(c2ccccc2)NC(=O)N4)cc1` (centres undefined), the inhibition at 20 µg/mL with Aspergillus flavus [1] and in the experiment on Aspergillus niger [5] was no more than 25% throughout. For the same compound, the negative logarithm of the IC50 (pIC50) with MCF7 [2] was 4.94. Also, the inhibition at 50 µg/mL in the experiment on Aspergillus flavus [3] and in the experiment on Aspergillus niger [4] was no more than 25% throughout. For the same compound, the Activity result with MCF7 [10] is “Not toxic”. In addition, the “inhibition zone (IZ)” value in the experiment with Pseudomonas aeruginosa, in the experiment with Staphylococcus aureus and in the experiment with Klebsiella pneumoniae was 6 mm each time. Further, the inhibition at 10 µg/mL in the experiment with Aspergillus niger [6] and in the experiment on Aspergillus flavus [7] was no more than 25% each time. Moreover, the inhibition at 100 µg/mL in the experiment on Aspergillus niger [8] and in the experiment on Aspergillus flavus [9] was no more than 25% in each case.
As for `O=C1NCc2cc3c(=O)n(-c4ccc(Cl)cc4)c(-c4ccccc4)c(-c4ccccc4)c3cc2N1`, the inhibition at 20 µg/mL with Aspergillus flavus [1] and in the experiment with Aspergillus niger [5] was no more than 25% each time. Moreover, the negative logarithm of the IC50 (pIC50) in the experiment on MCF7 [2] is 5.43. Also, the inhibition at 50 µg/mL in the experiment on Aspergillus flavus [3] and in the experiment on Aspergillus niger [4] was no more than 25% throughout. Besides, in the experiment on MCF7 [10], the Activity entry was “Not toxic”. Moreover, the “inhibition zone (IZ)” value in the experiment with Pseudomonas aeruginosa, in the experiment with Staphylococcus aureus and with Klebsiella pneumoniae was 6 mm throughout. In addition, the inhibition at 10 µg/mL in the experiment with Aspergillus niger [6] and in the experiment with Aspergillus flavus [7] was no more than 25% in each case. The inhibition at 100 µg/mL in the experiment with Aspergillus niger [8] and in the experiment with Aspergillus flavus [9] was no more than 25% in each case.
